In patent publication US20080200531A1, “CDKI pathway inhibitors as inhibitors of tumor cell growth” (priority 2006, published 2008):

Tests used:
[1] = target: CDK2/cyclinA (h), CDK2/cyclinE (h); assay: Cyclin/CDK kinase assay (Upstate), CDK2/cyclinA and CDK2/cyclinE; format: biochemical, human; settings: 100 μM, re-tested at 20 and 40 μM (SNX9, SNX2) or 10 and 20 μM (SNX9-1, SNX14)
Protocol: (§1) To test the above hypothesis, we determined whether several CDKI pathway inhibitors, including two SNX9 class compounds (SNX9 and SNX9-1), two compounds of a different structural class (SNX14 and SNX2) and another unrelated inhibitor (SNX35), inhibit the kinase activity of different complexes formed in vitro by purified cyclin/CDK complexes. This analysis was carried out as a service by Upstate Biotechnology, Inc.
(§2) In a final reaction volume of 25 μl, CDK2/cyclinA (h) (5-10 mU) is incubated with 8 mM MOPS pH 7.0, 0.2 mM EDTA, 0.1 mg/ml histone H1, 10 mM MgAcetate and [γ-33P-ATP] (specific activity approx. 500 cpm/pmol, 45 μM concentration). The reaction is initiated by the addition of the MgATP mix. After incubation for 40 minutes at room temperature, the reaction is stopped by the addition of 5 μl of a 3% phosphoric acid solution. 10 μl of the reaction is then spotted onto a P30 filtermat and washed three times for 5 minutes in 75 mM phosphoric acid and once in methanol prior to drying and scintillation counting.
In a final reaction volume of 25 μl, CDK2/cyclinE (h) (5-10 mU) is incubated with 8 mM MOPS pH 7.0, 0.2 mM EDTA, 0.1 mg/ml histone H1, 10 mM MgAcetate and [γ-33P-ATP] (specific activity approx. 500 cpm/pmol, 120 μM concentration). The reaction is initiated by the addition of the MgATP mix. […]

[2] = Range Finder Study (acute toxicity, MTD) in NCr nude mice; format: in vivo; settings: for impact on White Blood Cell count, first iteration: up to 17.6 mg/kg intravenously; for impact on White Blood Cell count, second iteration / toxicity in the Range Finder Study: up to 70.4 mg/kg intravenously
Protocol: Male NCr nude mice, aged approximately 6-8 weeks were used for the study, which was carried out as a service by Taconic Biotechnology, Rensselaer, N.Y. Animals were maintained under virus free barrier conditions with continuous health monitoring. The administration of test materials, all data collection and disposal of study animals was in compliance with all relevant Taconic Biotechnology Standard Operating Procedures as well as The Guide for the Care and Use of Laboratory Animals. Study animals were observed upon arrival and daily throughout the study for overall health, behavior and morbidity. Test animals were subject to body weight measurement to determine dosage volumes of test articles.
The initial part of this analysis was a Range Finder Study, designed to evaluate acute toxicity and to identify the maximum tolerated dose (MTD) for therapeutic study. The Range Finder Study was performed twice. For the first iteration, 30 mice were injected intravenously with SNX9 and SNX9-1 in groups of 3 with phosphate buffered saline (PBS) only, 2.2 mg/kg SNX9, 4.4 mg/kg SNX9 8.8 mg/kg SNX9, 17.6 mg/kg SNX9, 80% PBS: 20% DMSO, 2.2 mg/kg SNX9-1, 4.4 mg/kg SNX9-1 8.8 mg/kg SNX9-1, 17.6 mg/kg SNX9-1. SNX9 was dissolved in PBS and SNX9-1 was dissolved in 80% PBS:20% DMSO. The volume injected per animal was approximately 0.1 ml/injection. […] All other animals appeared healthy and thrived for the duration of the 3 day period of observation, and their general health and body weight were assessed. For all the mice, there was no significant weight change (see Table 4). At the end of the 3 day observation period all the mice were euthanized and a terminal blood sample was collected via cardiac puncture. These blood samples were analyzed for complete blood count evaluation. […] A slight elevation of Red Blood Cell count was detected in approximately half of the groups, although this elevation was less than a 7% increase above the upper reference range and was not considered significant. All other blood count categories placed within the reference range.
For the second iteration, 24 mice were injected intravenously with SNX9 and SNX9-1 in groups of 3 with PBS only, 17.6 mg/kg SNX9, 35.2 mg/kg SNX9, 70.4 mg/kg SNX9, 80% PBS:20% DMSO, […] SNX9-1, 35.2 mg/kg SNX9-1, 70.4 mg/kg SNX9-1. […] All other animals were healthy for the duration of the 3 day period during which the animals were observed and their general health and body weight were assessed. For all the mice, there was no significant weight change (see Table 4). The average beginning weight for the mice in the second iteration was 23.7 g±1.73. After the 3 day observation period all the mice were euthanized and a terminal blood sample was collected via cardiac puncture. These blood samples were analyzed for complete blood count evaluation. […] A slight elevation of Red Blood Cell count was detected in approximately 7 out of eight of the groups, although this elevation was less than a 6% increase above the upper reference range and was not considered significant. All other blood count categories placed within the reference range.

[3] = target: T1, CDK1/cyclinB (h) (Homo sapiens, UniProt P06493); assay: Cyclin/CDK kinase assay (Upstate), CDK1/cyclinB; format: biochemical; settings: 100 μM, re-tested at 20 and 40 μM (SNX9, SNX2) or 10 and 20 μM (SNX9-1, SNX14)
T1 construct: purchased Upstate Biotechnology, Inc
T1 sequence (P06493 whole entry): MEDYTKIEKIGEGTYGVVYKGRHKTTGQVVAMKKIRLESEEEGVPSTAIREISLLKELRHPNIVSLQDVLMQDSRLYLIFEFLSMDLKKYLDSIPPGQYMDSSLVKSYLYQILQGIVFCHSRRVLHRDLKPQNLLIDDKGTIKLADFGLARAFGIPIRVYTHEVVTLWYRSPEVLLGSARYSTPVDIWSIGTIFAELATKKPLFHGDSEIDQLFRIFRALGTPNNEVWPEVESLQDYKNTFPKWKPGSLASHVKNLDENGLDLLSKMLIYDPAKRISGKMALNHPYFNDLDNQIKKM
T1 sequence (P14635 whole entry partner): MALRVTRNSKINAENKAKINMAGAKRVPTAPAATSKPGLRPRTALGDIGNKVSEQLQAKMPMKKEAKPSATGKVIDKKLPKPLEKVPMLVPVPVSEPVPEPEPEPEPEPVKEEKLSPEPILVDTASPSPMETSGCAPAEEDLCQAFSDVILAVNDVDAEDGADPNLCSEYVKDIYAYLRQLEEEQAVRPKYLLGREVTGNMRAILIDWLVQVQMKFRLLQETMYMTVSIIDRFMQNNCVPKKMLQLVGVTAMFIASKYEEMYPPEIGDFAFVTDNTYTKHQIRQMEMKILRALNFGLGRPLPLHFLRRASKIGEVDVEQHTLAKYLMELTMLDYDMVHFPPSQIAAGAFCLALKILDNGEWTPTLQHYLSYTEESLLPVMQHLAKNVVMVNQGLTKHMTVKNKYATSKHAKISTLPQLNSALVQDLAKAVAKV
Protocol: as §1
as §2, with “CDK1/cyclinB” for “CDK2/cyclinA”, “μU)” for “mU)”
(§3) At the first step, all the compounds were tested at 100 μM concentration. […] For SNX14 and SNX2, the relative efficacy of inhibition was CDK1>CDK2˜CDK3>CDK6. For SNX9 and SNX9-1, the order was CDK3>CDK1>CDK2>CDK6 (FIG. 12).

[4] = system: cyclin/CDK complexes (CDK1, CDK2, CDK3, CDK6); assay: Cyclin/CDK kinase assays, comparison over all complexes; format: biochemical, human
Protocol: as §1, §3

[5] = system: WI-38 and BJ-EN fibroblasts vs HT1080, HCT116, C33-A, Calu-6; assay: 3-day growth inhibition assay (Hoechst 33342), normal fibroblasts vs tumor cell lines; settings: 3-day assay, WI-38, BJ-EN vs HT1080, HCT116, C33-A
Protocol: The assays were carried out in 96-well plates, in triplicates; the plated cell numbers for each cell line were determined in preliminary experiments to assure exponential growth over the 3-day period of the assay. The cell numbers were measured by staining DNA of attached cells with Hoechst 33342, and the results for each dose were expressed as the decrease in cell number relative to untreated cells. For some of the tumor/normal cell line combinations, the assays were repeated using CellTiter-Glo viability assay (Promega), with the same results.

NCCc1c[nH]c2c(Cl)cc(Cl)cc12 [SNX9-1]
kinase activity of CDK2 [1]: inhibited the kinase activities
deaths, first iteration ([2]; 2.2 mg/kg (lowest dose) group of 3, intravenously, day one, apparently due to shock): One animal died on day one
impact on White Blood Cell count, first iteration [2]: neither SNX9 nor SNX9-1 had a detectable impact on White Blood Cell count
impact on White Blood Cell count, second iteration [2]: neither SNX9 nor SNX9-1 had a detectable impact on White Blood Cell count
toxicity in the Range Finder Study [2]: complete lack of toxicity
kinase activity of CDK1 (CDC2) [3]: inhibited the kinase activities
relative efficacy of inhibition (order of CDKs) [4]: CDK3>CDK1>CDK2>CDK6
tumor selectivity of growth inhibition, tumor cells vs normal fibroblasts [5]: inhibited all the tumor cells to a greater extent than normal fibroblasts

Cc1[nH]c2c(Cl)cccc2c1CCN [SNX9]
kinase activity of CDK2 [1]: inhibited the kinase activities
deaths, second iteration ([2]; 70.4 mg/kg group of 3, intravenously, shortly after dosing, likely due to shock and not compound toxicity): One animal died shortly after dosing
impact on White Blood Cell count, first iteration [2]: neither SNX9 nor SNX9-1 had a detectable impact on White Blood Cell count
impact on White Blood Cell count, second iteration [2]: neither SNX9 nor SNX9-1 had a detectable impact on White Blood Cell count
toxicity in the Range Finder Study [2]: complete lack of toxicity
kinase activity of CDK1 (CDC2) [3]: inhibited the kinase activities
relative efficacy of inhibition (order of CDKs) [4]: CDK3>CDK1>CDK2>CDK6
tumor selectivity of growth inhibition, tumor cells vs normal fibroblasts [5]: inhibited all the tumor cells to a greater extent than normal fibroblasts
